One assay has as its target AXL (h) kinase (Homo sapiens (Human), UniProt P30530). As to the kind of experiment: AXL (h) kinase activity test (EZ Reader mobility shift, FLPeptide30). In kind it is biochemical. Conditions: ATP 100 μM, AXL 1 nM. Here is the method: The effect of the disclosed compounds as protein kinase inhibitors can be evaluated by the following experiments. The AXL (h) kinase activity of the compounds of the invention is tested by the following methods:
Reagents used in the experiment were AXL (Carna Bioscience, Cat No.: 08-107) and FLPeptide30 (PerkinElmer, Cat No.: 760430). The instruments involved were thermotank (Thermo Scientific), oscillator (QILINBEIER), EZ Reader (PerkinElmer, Cat No.: 122919), Non-contact stage pipetting system (Labcyte Inc., Cat No.: Echo 550), and non-contact nanoliter pipetting system (TECAN, Cat No.: EVO200).
Compound dilution: 1) Dissolve the compound in DMSO to the appropriate concentration; 2) Using TECAN EVO200 to dilute 10 concentrations in 384 microplates by three times gradient, the highest concentration is 1 mM; Echo550 was used to transfer 20 nL solution from the dilution plate to the test plate.
2) Add 15 μL solution 1 to each well of the test plate and incubate at room temperature for 30 minutes.
4) Add 5 μL solution 2 to start the reaction, and the final volume of each well is 20 μL.
5) Incubated at 25° C. for 90 min, and then added 75 μL stop solution (containing 0.5 M EDTA) to terminate the reaction.
6) The sample of each well was analyzed using EZ reader.
1) Based on the measured conversion rate (CR), the Remaining Activity (%) of the kinase was calculated according to the following function:
2) XLFit (Equation 201) software was used to fit IC50.
The above methods can be used to obtain the inhibitory IC50 and/or inhibitory constant Ki.

For another assay, the system named is Ba/F3 AXL cells. Nature of the assay: Cell activity test: growth inhibition of Ba/F3 AXL cell line (CTG, 72 h). Conditions: Mus musculus, BaF3. In kind it is cell-based. Here is the method: This experiment was conducted by detecting the inhibitory effect of compounds on the growth of Ba/F3 AXL cell line and Ba/F3 parental cell line. Cells in logarithmic growth stage were harvested and counted by platelet counter. Trypan blue rejection method was used to detect cell viability to ensure that the cell viability was above 90%. Adjust cell concentration; 90 μL cell suspension was added to 96-well plates, respectively; Cells in 96-well plates were cultured overnight at 37° C., 5% CO2 and 95% humidity. A 10-fold drug solution was prepared, with the highest concentration of 10 μM, and a total of 9 concentrations were diluted at 3.16 times the ratio. 10 μL drug solution was added to each well of the 96-well plate inoculated with cells, and three wells were set for each drug concentration; 96-well plates were incubated at 37° C., 5% CO2 and 95% humidity for 72 h, and CTG analysis was performed. Thaw the CTG reagent and balance the cell plates to room temperature for 30 minutes. Add the same volume of CTG solution to each well and vibrate on a fixed-rail shaker for 5 minutes to crack the cells. Place the cell plates at room temperature for 20 minutes to stabilize the cold light signal and read the cold light value. The GraphPad Prism 5.0 software was used to analyze the data, and the nonlinear S-curve regression was used to fit the data to obtain the dose-effect curve, and the IC50 value was calculated accordingly. Cell survival rate (%)=(Lum drug to be tested −Lum culture medium control)/(Lum cell control−Lum culture medium control)×100%.

Chain of AXL (h) kinase (P30530 473-894): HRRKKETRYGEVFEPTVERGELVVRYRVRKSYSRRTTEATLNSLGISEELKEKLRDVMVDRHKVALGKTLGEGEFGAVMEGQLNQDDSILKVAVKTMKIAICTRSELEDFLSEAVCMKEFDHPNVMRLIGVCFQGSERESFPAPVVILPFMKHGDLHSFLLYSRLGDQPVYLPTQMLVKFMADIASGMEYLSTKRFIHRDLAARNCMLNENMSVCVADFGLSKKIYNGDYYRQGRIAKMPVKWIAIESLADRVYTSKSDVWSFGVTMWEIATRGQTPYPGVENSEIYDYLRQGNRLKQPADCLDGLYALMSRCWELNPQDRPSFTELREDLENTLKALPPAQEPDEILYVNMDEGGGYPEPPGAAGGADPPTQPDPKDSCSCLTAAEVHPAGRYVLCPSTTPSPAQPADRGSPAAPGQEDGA

Regarding `Nc1ncnn2c1c(-c1ccc(NC(=O)c3c4n(n(-c5ccccn5)c3=O)CCOC4)cc1)cc2[C@H]1CC[C@H](O)CC1` [example 32, N-(4-(4-amino-7-((1r,4r)-4-hydroxycyclohexyl)pyrrolo[2,1-f][1,2,4]triazin-5-yl)phenyl)-2-oxo-1-(pyridin-2-yl)-2,4,6,7-tetrahydro-1H-pyrazolo[5,1-c][1,4]oxazine-3-carboxamide], the IC50 at AXL (h) kinase is below 5 nM.
In the case of `Nc1ncnn2c(C3CCNCC3)cc(-c3ccc(NC(=O)c4c5n(n(-c6ccccc6)c4=O)CCOC5)cc3)c12` [example 2, N-(4-(4-amino-7-(piperidin-4-yl)pyrrolo[2,1-f][1,2,4]triazin-5-yl)phenyl)-2-oxo-1-phenyl-2,4,6,7-tetrahydro-1H-pyrazolo[5,1-c][1,4]oxazine-3-carboxamide], the 50% inhibitory concentration (IC50) at AXL (h) kinase is above 100 nM; in the assay on Ba/F3 AXL cells it was 50 to 100 nM.
The matching figures for `CC(C)C(=O)N1CCC(c2cc(-c3ccc(NC(=O)c4c5n(n(-c6ccccn6)c4=O)CCOC5)cc3F)c3c(N)ncnn23)CC1` [example 9, N-(4-(4-amino-7-(1-isobutyrylpiperidin-4-yl)pyrrolo[2,1-f][1,2,4]triazin-5-yl)-3-fluorophenyl)-2-oxo-1-(pyridin-2-yl)-2,4,6,7-tetrahydro-1H-pyrazolo[5,1-c][1,4]oxazine-3-carboxamide]: 5 to 50 nM and 5 to 50 nM.
For `CC(C)(C)C(=O)N1CCC(c2cc(-c3ccc(NC(=O)c4c5n(n(-c6ccccn6)c4=O)CCOC5)cc3F)c3c(N)ncnn23)CC1` [example 37] the same measures were 5 to 50 nM and below 5 nM.
The matching figures for `Nc1ncnn2c(C3CCN(C(=O)C4CC4)CC3)cc(-c3ccc(NC(=O)c4c5n(n(-c6cccnc6)c4=O)CCCC5)cc3)c12` [example 49]: 5 to 50 nM and 5 to 50 nM.
In the assay with Ba/F3 AXL cells, `CC(C)C(=O)N1CCC(c2cc(-c3ccc(NC(=O)c4c5n(n(-c6ccccc6)c4=O)CCOC5)nc3)c3c(N)ncnn23)CC1` [example 35, N-(5-(4-amino-7-(1-isobutyrylpiperidin-4-yl)pyrrolo[2,1-f][1,2,4]triazin-5-yl)pyridin-2-yl)-2-oxo-1-phenyl-2,4,6,7-tetrahydro-1H-pyrazolo[5,1-c][1,4]oxazine-3-carboxamide] gave an IC50 below 5 nM.
Still for that read-out and setting: for `Nc1ncnn2c(C3CCN(C(=O)C4CC4)CC3)cc(-c3ccc(NC(=O)c4c5n(n(-c6ccccn6)c4=O)CCOC5)cc3F)c12` [example 28, N-(4-(4-amino-7-(1-(cyclopropanecarbonyl)piperidin-4-yl)pyrrolo[2,1-f][1,2,4]triazin-5-yl)-3-fluorophenyl)-2-oxo-1-(pyridin-2-yl)-2,4,6,7-tetrahydro-1H-pyrazolo[5,1-c][1,4]oxazine-3-carboxamide] the value was 5 to 50 nM.
Take `CC(C)(F)C(=O)N1CCC(c2cc(-c3ccc(NC(=O)c4c5n(n(-c6ccccn6)c4=O)CCCC5)cc3F)c3c(N)ncnn23)CC1` [example 26, N-(4-(4-amino-7-(1-(2-fluoro-2-methylpropanoyl)piperidin-4-yl)pyrrolo[2,1-f][1,2,4]triazin-5-yl)-3-fluorophenyl)-2-oxo-1-(pyridin-2-yl)-1,2,4,5,6,7-hexahydropyrazolo[1,5-a]pyridine-3-carboxamide]: the IC50 on AXL (h) kinase was 5 to 50 nM; in the assay on Ba/F3 AXL cells, below 5 nM.
Turning to `Nc1ncnn2c(C3CCN(C(=O)C4CCC4)CC3)cc(-c3ccc(NC(=O)c4c5n(n(-c6ccccn6)c4=O)CCC5)cc3)c12` [example 40], on AXL (h) kinase, the IC50 is above 100 nM.
Take `Nc1ncnn2c(C3CCC(O)CC3)cc(-c3ccc(NC(=O)c4c5n(n(-c6ccccc6)c4=O)CCOC5)nc3)c12` (centres unmarked) [example 23]: the half-inhibitory concentration (IC50) in the assay on Ba/F3 AXL cells is below 5 nM.
Take `CC(C)(F)C(=O)N1CCC(c2cc(-c3ccc(NC(=O)c4c5n(n(-c6cccnn6)c4=O)CCCC5)cc3)c3c(N)ncnn23)CC1` [example 52]: the IC50 at AXL (h) kinase fell in the range of 5 to 50 nM.
`CC(C)(F)C(=O)N1CCC(c2cc(-c3ccc(NC(=O)c4c5n(n(-c6ccccn6)c4=O)CCOC5)cc3)c3c(N)ncnn23)CC1` [example 12, N-(4-(4-amino-7-(1-(2-fluoro-2-methylpropanoyl)piperidin-4-yl)pyrrolo[2,1-f][1,2,4]triazin-5-yl)phenyl)-2-oxo-1-(pyridin-2-yl)-2,4,6,7-tetrahydro-1H-pyrazolo[5,1-c][1,4]oxazine-3-carboxamide] yielded an IC50 in the assay on Ba/F3 AXL cells of 5 to 50 nM.
Take `CC(C)C(=O)N1CCC(c2cc(-c3ccc(NC(=O)c4c5n(n(-c6ccccn6)c4=O)CCCC5)cc3)c3c(N)ncnn23)CC1` [example 18, N-(4-(4-amino-7-(1-isobutyrylpiperidin-4-yl)pyrrolo[2,1-f][1,2,4]triazin-5-yl)phenyl)-2-oxo-1-(pyridin-2-yl)-1,2,4,5,6,7-hexahydropyrazolo[1,5-a]pyridine-3-carboxamide]: the IC50 at AXL (h) kinase and in the assay on Ba/F3 AXL cells was 5 to 50 nM each time.
As to `Cn1cc(-n2c(=O)c(C(=O)Nc3ccc(-c4cc(C5CCN(C(=O)C6CC6)CC5)n5ncnc(N)c45)cc3)c3n2CCCC3)cn1` [example 47], the IC50 at AXL (h) kinase was 5 to 50 nM; with Ba/F3 AXL cells, below 5 nM.
For `Nc1ncnn2c(C3CCNCC3)cc(-c3ccc(NC(=O)c4c5n(n(-c6ccccc6)c4=O)CCC5)cc3)c12` [example 5, N-(4-(4-amino-7-(piperidin-4-yl)pyrrolo[2,1-f][1,2,4]triazin-5-yl)phenyl)-2-oxo-1-phenyl-2,4,5,6-tetrahydro-1H-pyrrolo[1,2-b]pyrazole-3-carboxamide] the same measures were above 100 nM and above 100 nM.
As for `Nc1ncnn2c(C3CCC(O)CC3)cc(-c3ccc(NC(=O)c4c5n(n(-c6ccccn6)c4=O)CCOC5)cc3)c12` (centres unmarked) [example 32, N-(4-(4-amino-7-((1r,4r)-4-hydroxycyclohexyl)pyrrolo[2,1-f][1,2,4]triazin-5-yl)phenyl)-2-oxo-1-(pyridin-2-yl)-2,4,6,7-tetrahydro-1H-pyrazolo[5,1-c][1,4]oxazine-3-carboxamide], the IC50 with Ba/F3 AXL cells was 5 to 50 nM.
As to `Nc1ncnn2c(C3CCN(C(=O)C4CC4)CC3)cc(-c3ccc(NC(=O)c4c5n(n(-c6ccncc6)c4=O)CCCC5)cc3)c12` [example 44], the half-inhibitory concentration (IC50) at AXL (h) kinase was in the range of 50 to 100 nM.
As for `CC(C)C(=O)N1CCC(c2cc(-c3ccc(NC(=O)c4c5n(n(-c6ccccn6)c4=O)CCCC5)cc3F)c3c(N)ncnn23)CC1` [example 17, N-(4-(4-amino-7-(1-isobutyrylpiperidin-4-yl)pyrrolo[2,1-f][1,2,4]triazin-5-yl)-3-fluorophenyl)-2-oxo-1-(pyridin-2-yl)-1,2,4,5,6,7-hexahydropyrazolo[1,5-a]pyridine-3-carboxamide], in the assay with Ba/F3 AXL cells, the concentration for half-maximal inhibition (IC50) was in the range of 5 to 50 nM.
On the same count and under the same terms, for `CC(C)C(=O)N1CCC(c2cc(-c3ccc(NC(=O)c4c5n(n(-c6ccccc6)c4=O)CCC5)cc3)c3c(N)ncnn23)CC1` [example 6, N-(4-(4-amino-7-(1-isobutyrylpiperidin-4-yl)pyrrolo[2,1-f][1,2,4]triazin-5-yl)phenyl)-2-oxo-1-phenyl-2,4,5,6-tetrahydro-1H-pyrrolo[1,2-b]pyrazole-3-carboxamide] the value was below 5 nM; for `Nc1ncnn2c1c(-c1ccc(NC(=O)c3c4n(n(-c5ccccc5)c3=O)CCCC4)cc1F)cc2[C@H]1CC[C@H](O)CC1` [example 24, N-(4-(4-amino-7-((1r,4r)-4-hydroxycyclohexyl)pyrrolo[2,1-f][1,2,4]triazin-5-yl)-3-fluorophenyl)-2-oxo-1-phenyl-1,2,4,5,6,7-hexahydropyrazolo[1,5-a]pyridine-3-carboxamide], below 5 nM.
Consider `[2H][C@]1(O)CC[C@H](c2cc(-c3ccc(NC(=O)c4c5n(n(-c6ccccc6)c4=O)CCOC5)cc3F)c3c(N)ncnn32)CC1` [example 33, N-(4-(4-amino-7-((1r,4r)-4-hydroxycyclohexyl-4-d)pyrrolo[2,1-f][1,2,4]triazin-5-yl)-3-fluorophenyl)-2-oxo-1-phenyl-2,4,6,7-tetrahydro-1H-pyrazolo[5,1-c][1,4]oxazine-3-carboxamide], for which the IC50 on AXL (h) kinase was 5 to 50 nM.

By IC50 is commonly meant the concentration needed to halve the response being measured.

(Values after patent publication US20230279024A1, “TRIAZINE COMPOUND AND COMPOSITION AND USE THEREOF” (BEIJING FINDCURE BIOSCIENCES, LTD., priority 2020, published 2023).)
